Results on 33 molecules are retold here after patent US5945434A, “Indazole derivatives having monocyclic amine” (Nisshin Flour Milling Co., Ltd., priority 1995, dated 1999).

Structures are written as SMILES.

Tested on in one test: not given
Experiment: not given
As to conditions: U.S. Pat. No. 3,145,215; cited from earlier work.
As for `CN1CCN(CCNC(=O)c2n[nH]c3ccccc23)CC1` [N-[2-(4-methyl-1-piperazinyl)ethyl]-1H-indazole-3-carboxamide], the “hypotensive activity (in words)” value is “has hypotensive activity”.

The target of another test is T1, 5-HT4 receptor (rat oesophageal tunica muscularis mucosae) (Rattus norvegicus, UniProt Q62758).
T1 construct: oesophageal tunica muscularis mucosae excised from rats; from tissue; host or cells: rat oesophageal tunica muscularis mucosae
T1 sequence (Q62758 whole entry): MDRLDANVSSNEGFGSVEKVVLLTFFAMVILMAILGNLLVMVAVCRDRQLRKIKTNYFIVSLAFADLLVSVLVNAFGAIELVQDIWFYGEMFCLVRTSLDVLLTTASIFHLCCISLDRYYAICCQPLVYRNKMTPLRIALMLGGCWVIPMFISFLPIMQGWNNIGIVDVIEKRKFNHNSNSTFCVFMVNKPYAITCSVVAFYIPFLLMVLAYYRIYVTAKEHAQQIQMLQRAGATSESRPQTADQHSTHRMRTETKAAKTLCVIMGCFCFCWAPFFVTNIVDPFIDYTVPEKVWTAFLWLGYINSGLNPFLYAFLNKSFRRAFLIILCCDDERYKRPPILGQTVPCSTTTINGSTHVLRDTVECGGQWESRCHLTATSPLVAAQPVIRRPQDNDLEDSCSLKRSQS
Nature of the test: 5-HT4 agonist activity: relaxation of carbachol-contracted rat oesophageal tunica muscularis mucosae.
Conditions: not given
In kind it is cell-based. The procedure: The agonist activities of the indazole derivatives of the present invention and Mosapride were determined by the following method, that is, the method determining 5-HT4 agonist activity by using rat oesophageal tunica muscularis mucosae (Naunyn-Schmiedeberg's Arch. Pharmacol., Vol. 343, 439-446, 1991).
According to the method of the literature, the oesophageal tunica muscularis mucosae excised from rats were suspended in an organ bath containing Krebs-Henseleit solution aerated with a mixed gas (95% O2, 5% CO2) and contracted with carbachol (1×10^-6 M). After the contraction was stabilized, the cumulative administration of the compounds was performed to determine the relaxation of the rat oesophagus pre-contracted with carbachol. The concentration (ED50) to cause 50% relaxation of the carbachol-induced contraction was measured. The result is expressed in terms of -log ED50 and shown in the following table in which higher numerical value indicates higher activity.
`CCCn1nc(C(=O)NCCN2CCN(Cc3ccc(F)cc3)CC2)c2ccccc21` [Compound 15, N-[2-(4-p-Fluorobenzyl-1-piperazinyl)ethyl]-1-n-propylindazole-3-carboxamide] had an EC50 of 6.76 µM.

The molecule `CCCn1nc(C(=O)NCC2CCNCC2)c2ccccc21` [Compound 21, N-(4-Piperidyl)methyl-1-n-propylindazole-3-carboxamide] showed an EC50 of 47.9 µM.

`CCCCN1CCN(CCNC(=O)c2nn(C3CCCC3)c3ccccc23)CC1` [Compound 31, N-[2-(4-n-Butyl-1-piperazinyl)ethyl]-1-cyclopentylindazole-3-carboxamide] gave an EC50 of 5.01 µM.

Consider `CCCCN1CCN(CCNC(=O)c2nn(C(CC)CC)c3ccccc23)CC1` [Compound 14, N-[2-(4-n-Butyl-1-piperazinyl)ethyl]-1-(3-pentyl)indazole-3-carboxamide], for which the EC50 is 6.03 µM.

`CCCCN1CCN(CCNC(=O)c2nn(C(C)CC)c3ccccc23)CC1` (stereo not drawn) [Compound 13, N-[2-(4-n-Butyl-1-piperazinyl)ethyl]-1-sec-butylindazole-3-carboxamide] had an EC50 of 5.5 µM.

Regarding `CCCCN1CCC(CNC(=O)c2nn(CCC)c3ccccc23)CC1` [Compound 18, N-(1-n-Butyl-4-piperidyl)methyl-1-n-propylindazole-3-carboxamide], the EC50 is 7.94 µM.

With `CCCCN1CCC(NC(=O)c2nn(CCC)c3ccccc23)CC1` [Compound 23, N-(1-n-Butyl-4-piperidyl)-1-n-propylindazole-3-carboxamide], the EC50 is 2.82 µM.

The molecule `CCCn1nc(C(=O)NC2CCN(C)CC2)c2ccccc21` [Compound 22, N-(1-Methyl-4-piperidyl)-1-n-propylindazole-3-carboxamide] gave an EC50 of 6.92 µM.

Consider `CCCn1nc(C(=O)NC2CCN(Cc3ccccc3)CC2)c2ccccc21` [Compound 17, N-(1-Benzyl-4-piperidyl)-1-n-propylindazole-3-carboxamide], for which the EC50 is 3.39 µM.

The molecule `CCCn1nc(C(=O)NCC=C2CCN(C)CC2)c2ccccc21` [Compound 4, N-[2-(1-Methyl-4-piperidylidene)ethyl]-1-n-propylindazole-3-carboxamide] gave an EC50 of 9.77 µM.

Molecule `CCCCN1CCC(=CCNC(=O)c2nn(CCC)c3ccccc23)CC1` [Compound 5, N-[2-(1-n-Butyl-4-piperidylidene)ethyl]-1-n-propylindazole-3-carboxamide] had an EC50 of 0.437 µM.

With `CCCn1nc(C(=O)NC2CCNCC2)c2ccccc21` [Compound 20, N-(4-Piperidyl)-1-n-propylindazole-3-carboxamide], the EC50 was 112 µM.

The molecule `CCCCN1CCN(CCCNC(=O)c2nn(CCC)c3ccccc23)CC1` [Compound 1, N-[3-(4-n-Butyl-1-piperazinyl)propyl]-1-n-propylindazole-3-carboxamide] gave an EC50 of 10.5 µM.

Consider `CCCCN1CCN(CCNC(=O)c2nn(CCC)c3ccccc23)CC1` [Compound 3, N-[2-(4-n-Butyl-1-piperazinyl)ethyl]-1-n-propylindazole-3-carboxamide], for which the EC50 is 2.4 µM.

The molecule `CCCn1nc(C(=O)NCCN2CCN(Cc3ccc(OC)cc3)CC2)c2ccccc21` [Compound 28, N-[2-(4-p-Methoxybenzyl-1-piperazinyl)ethyl]-1-n-propylindazole-3-carboxamide] showed an EC50 of 1.58 µM.

Turning to `CCCCCN1CCN(CCNC(=O)c2nn(CCC)c3ccccc23)CC1` [Compound 27, N-[2-(4-n-Pentyl-1-piperazinyl)ethyl]-1-n-propylindazole-3-carboxamide], the EC50 was 2.69 µM.

Molecule `CCCCN1CCN(CCNC(=O)c2nn(CC)c3ccccc23)CC1` [Compound 29, N-[2-(4-n-Butyl-1-piperazinyl)ethyl]-1-ethylindazole-3-carboxamide] showed an EC50 of 10.2 µM.

`CCCCN1CCC(CCNC(=O)c2nn(CCC)c3ccccc23)CC1` [Compound 19, N-[2-(1-n-Butyl-4-piperidyl)ethyl]-1-n-propylindazole-3-carboxamide]: the EC50 was 1.29 µM.

`CCCn1nc(C(=O)NCC=C2CCN(Cc3ccc(F)cc3)CC2)c2ccccc21` [Compound 12, N-[2-(1-p-Fluorobenzyl-4-piperidylidene)ethyl]-1-n-propylindazole-3-carboxamide] showed an EC50 of 3.39 µM.

`C=CCN1CCN(CCNC(=O)c2nn(CCC)c3ccccc23)CC1` [Compound 25, N-[2-(4-Allyl-1-piperazinyl)ethyl]-1-n-propylindazole-3-carboxamide] had an EC50 of 6.03 µM.

For the molecule `CCCn1nc(C(=O)NCC2CCN(C)CC2)c2ccccc21` [Compound 7, N-(1-Methyl-4-piperidyl)methyl-1-n-propylindazole-3-carboxamide], the EC50 is 5.01 µM.

`CCCn1nc(C(=O)NCCC2CCN(C)CC2)c2ccccc21` [Compound 8, N-[2-(1-Methyl-4-piperidyl)ethyl]-1-n-propylindazole-3-carboxamide] had an EC50 of 10.7 µM.

As to `CCCCN1CCCC(NC(=O)c2nn(CCC)c3ccccc23)CCC1` [Compound 6, N-(1-n-Butyl-5-octahydroazocinyl)-1-n-propylindazole-3-carboxamide], the EC50 was 6.46 µM.

For `CCCn1nc(C(=O)NCCN2CCN(C)CC2)c2ccccc21` [Compound 2, N-[2-(4-Methyl-1-piperazinyl)ethyl]-1-n-propylindazole-3-carboxamide], the EC50 is 20.4 µM.

In turn, `CCCCN1CCN(CCNC(=O)c2nn(C(C)C)c3ccccc23)CC1` [Compound 30, N-[2-(4-n-Butyl-1-piperazinyl)ethyl]-1-isopropylindazole-3-carboxamide] gave an EC50 of 2.95 µM.

Turning to `C=CCn1nc(C(=O)NCCN2CCN(Cc3ccc(F)cc3)CC2)c2ccccc21` [Compound 16, N-[2-(4-p-Fluorobenzyl-1-piperazinyl)ethyl]-1-allylindazole-3-carboxamide], the EC50 was 7.41 µM.

The molecule `CCCN1CCN(CCNC(=O)c2nn(CCC)c3ccccc23)CC1` [Compound 26, N-[2-(4-n-Propyl-1-piperazinyl)ethyl]-1-n-propylindazole-3-carboxamide] had an EC50 of 8.91 µM.

The test is the same for the next values; noted with them: concentration causing 50% relaxation of the carbachol (1×10^-6 M)-induced contraction; cumulative administration; read-out: Activity (-log ED50) (converted).
Consider `O=C(NCC=C1CCN(Cc2ccc(F)cc2)CC1)c1n[nH]c2ccccc12` [Compound 9, N-[2-(1-p-Fluorobenzyl-4-piperidylidene)ethyl]-1H-indazole-3-carboxamide], for which the EC50 was 7.41 µM.

With `CCCCN1CCN(CCNCc2nn(CCC)c3ccccc23)CC1` [Compound 33, 3-{N-[2-(4-n-Butyl-1-piperazinyl)ethyl]aminomethyl}-1-n-propylindazole], the EC50 is 29.5 µM.

For `CCCCN1CCN(CCNC(=S)c2nn(CCC)c3ccccc23)CC1` [Compound 32, N-[2-(4-n-Butyl-1-piperazinyl)ethyl]-1-n-propylindazole-3-thiocarboxamide], the EC50 was 10.5 µM.

`O=C(NCCN1CCN(Cc2ccc(F)cc2)CC1)c1n[nH]c2ccccc12` [Compound 11, N-[2-(4-p-Fluorobenzyl-1-piperazinyl)ethyl]-1H-indazole-3-carboxamide]: the EC50 is 12.6 µM.

The subject of the next test is 5-HT4 receptor.
Experiment: not given
The conditions noted are these: WO 9303725; cited from earlier work.
As for `CCCCN1CCC(COC(=O)c2nn(C)c3ccccc23)CC1` [(1-butyl-4-piperidyl)methyl-1-methylindazole-3-carboxylate], the “5-HT4 receptor antagonist activity (in words)” value is on record as “has a 5-HT4 receptor antagonist activity”.
